The structures appear in SMILES notation.

The assay concerns the target T1, Gag-Pol polyprotein [489-587] (Human immunodeficiency virus 1, UniProt P04585).
T1 construct: 489-587
Nature of the assay: Inhibitory concentration against human immunodeficiency virus-1 protease; (Dimerization inhibitor).

In the case of `CC[C@@H](C)[C@H](NC(=O)[C@H](CCC(N)=O)NC(=O)C1CCCN1C(=O)CCCCCCCCCCCCCCC(=O)N[C@@H](CO)C(=O)N[C@H](C(=O)N[C@@H](CC(C)C)C(=O)N[C@@H](CC(N)=O)C(=O)N[C@@H](Cc1ccccc1)C(=O)O)[C@H](C)O)C(=O)N[C@H](C(=O)N[C@@H](CC(C)C)C(=O)N[C@@H](Cc1c[nH]c2ccccc12)C(=O)O)[C@H](C)O` (some centres not stated), 350 nM corresponded to half-maximal inhibition (IC50) and the Ki was determined as 220 nM.

For the origin of these results see BindingDB's records for doi:10.1021/jm049581j (Purdue University, 2005).
